Blank lines part the entries; values can stand above or below the compound they belong to. Active and inactive are the calls of the source. The rule behind the calls is not given here.
What was measured:
[1] = Growth inhibition of human MDA-MB-231 cells after 48 hrs by MTT assay; assay type: functional, cell-based; details: MDA-MB-231, 48 h
[2] = Growth inhibition of human HT-29 cells after 48 hrs by MTT assay; assay type: functional, cell-based; details: HT-29, 48 h
MDA-MB-231 [3] = assay: Induction of apoptosis in human MDA-MB-231 cells assessed as increase in cleaved caspase-8 expression after 48 hrs by Western blot method; assay type: functional, cell-based
MDA-MB-231 [4] = assay: Induction of apoptosis in human MDA-MB-231 cells assessed as necrotic cells at 5 uM after 48 hrs by Annexin-V FITC/propidium iodide staining based flow cytometry (reference value: 0.8%); assay type: functional
[5] = target: Signal transducer and activator of transcription 3 (Homo sapiens) (UniProt P40763); assay: Inhibition of STAT3 phosphorylation at Tyr-705 residue in human MDA-MB-231 cells assessed as decrease in Bcl2 protein expression at 1 to 5 uM after 48 hrs by Western blot method; assay type: cell-based
4T1 = assay: Antitumor activity against mouse 4T1 cells implanted in Kunming mouse assessed as tumor growth inhibition at 10 to 20 mg/kg, po qd for 14 days; assay type: functional, organism-based
MDA-MB-231 [6] = assay: Induction of apoptosis in human MDA-MB-231 cells assessed as late apoptotic cells at 2 uM after 48 hrs by Annexin-V FITC/propidium iodide staining based flow cytometry (reference value: 0.4%); assay type: functional
MDA-MB-231 [7] = assay: Induction of apoptosis in human MDA-MB-231 cells assessed as live cells at 2 uM after 48 hrs by Annexin-V FITC/propidium iodide staining based flow cytometry (reference value: 96.1%); assay type: functional
[8] = target: Signal transducer and activator of transcription 3 (Homo sapiens) (UniProt P40763); assay: Inhibition of STAT3 acetylation at Lys-685 residue in human MDA-MB-231 cells assessed as increase in PTPN6 mRNA at 1- 10 uM expression after 48 hrs by RT-PCR method; assay type: cell-based
Mus musculus [9] = assay: Toxicity in Kunming mouse implanted with mouse 4T1 cells assessed as body weight loss at 10 to 20 mg/kg, po qd for 14 days measured during compound dosing; assay type: organism-based; details: in vivo, 336 h
MDA-MB-231 [10] = assay: Induction of apoptosis in human MDA-MB-231 cells assessed as late apoptotic cells at 8 uM after 48 hrs by Annexin-V FITC/propidium iodide staining based flow cytometry (reference value: 0.4%); assay type: functional
MDA-MB-231 [11] = assay: Induction of apoptosis in human MDA-MB-231 cells assessed as live cells at 10 uM after 48 hrs by Annexin-V FITC/propidium iodide staining based flow cytometry (reference value: 96.1%); assay type: functional
[12] = Effect on total STAT3 protein level in human MDA-MB-231 cells at 1 to 5 uM after 48 hrs by Western blot method; assay type: ADME, cell-based; details: mda-mb-231, 48 h
MDA-MB-231 [13] = assay: Induction of apoptosis in human MDA-MB-231 cells assessed as early apoptotic cells at 8 uM after 48 hrs by Annexin-V FITC/propidium iodide staining based flow cytometry (reference value: 2.6%); assay type: functional
[14] = target: Signal transducer and activator of transcription 3 (Homo sapiens) (UniProt P40763); assay: Inhibition of STAT3 phosphorylation at Tyr-705 residue in human MDA-MB-231 cells after 48 hrs by Western blot method; assay type: cell-based
MDA-MB-231 [15] = assay: Antiproliferative activity against human MDA-MB-231 cells assessed as inhibition of colony formation after 48 hrs by crystal violet staining based assay; assay type: functional, cell-based
MDA-MB-231 [16] = assay: Induction of apoptosis in human MDA-MB-231 cells assessed as late apoptotic cells at 1 uM after 48 hrs by Annexin-V FITC/propidium iodide staining based flow cytometry (reference value: 0.4%); assay type: functional
Mus musculus [17] = assay: In vivo inhibition of STAT3 phosphorylation at Tyr-705 residue in tumor of Kunming mouse implanted with mouse 4T1 cells at 10 to 20 mg/kg, po qd for 14 days; assay type: functional, organism-based
MDA-MB-231 [18] = assay: Induction of apoptosis in human MDA-MB-231 cells assessed as early apoptotic cells at 2 uM after 48 hrs by Annexin-V FITC/propidium iodide staining based flow cytometry (reference value: 2.6%); assay type: functional
[19] = target: Signal transducer and activator of transcription 3 (Homo sapiens) (UniProt P40763); assay: Inhibition of STAT3 acetylation at Lys-685 residue in human MDA-MB-231 cells assessed as increase in DLEC1 mRNA at 1- 10 uM expression after 48 hrs by RT-PCR method; assay type: cell-based
MDA-MB-231 [20] = assay: Induction of apoptosis in human MDA-MB-231 cells assessed as early apoptotic cells at 5 uM after 48 hrs by Annexin-V FITC/propidium iodide staining based flow cytometry (reference value: 2.6%); assay type: functional
[21] = target: Signal transducer and activator of transcription 3 (Homo sapiens) (UniProt P40763); assay: Inhibition of STAT3 phosphorylation at Tyr-705 residue in human MDA-MB-231 cells assessed as decrease in Cyclin D1 mRNA expression at 1 to 5 uM after 48 hrs by RT-PCR method; assay type: cell-based
MDA-MB-231 [22] = assay: Induction of apoptosis in human MDA-MB-231 cells assessed as increase in cleaved caspase-3 expression after 48 hrs by Western blot method; assay type: functional, cell-based
MDA-MB-231 [23] = assay: Induction of apoptosis in human MDA-MB-231 cells assessed as necrotic cells at 8 uM after 48 hrs by Annexin-V FITC/propidium iodide staining based flow cytometry (reference value: 0.8%); assay type: functional
MDA-MB-231 [24] = assay: Induction of apoptosis in human MDA-MB-231 cells assessed as late apoptotic cells at 10 uM after 48 hrs by Annexin-V FITC/propidium iodide staining based flow cytometry (reference value: 0.4%); assay type: functional
[25] = target: Signal transducer and activator of transcription 3 (Homo sapiens) (UniProt P40763); assay: Inhibition of STAT3 acetylation at Lys-685 residue in human MDA-MB-231 cells after 48 hrs by Western blot method; assay type: cell-based
MDA-MB-231 [26] = assay: Induction of apoptosis in human MDA-MB-231 cells assessed as necrotic cells at 1 uM after 48 hrs by Annexin-V FITC/propidium iodide staining based flow cytometry (reference value: 0.8%); assay type: functional
MDA-MB-231 [27] = assay: Potency index, ratio of resveratrol IC50 to compound IC50 for human MDA-MB-231 cells; assay type: functional
MDA-MB-231 [28] = assay: Induction of apoptosis in human MDA-MB-231 cells assessed as increase in cleaved caspase-9 expression after 48 hrs by Western blot method; assay type: functional, cell-based
MDA-MB-231 [29] = assay: Induction of apoptosis in human MDA-MB-231 cells assessed as early apoptotic cells at 10 uM after 48 hrs by Annexin-V FITC/propidium iodide staining based flow cytometry (reference value: 2.6%); assay type: functional
MDA-MB-231 [30] = assay: Induction of apoptosis in human MDA-MB-231 cells assessed as live cells at 1 uM after 48 hrs by Annexin-V FITC/propidium iodide staining based flow cytometry (reference value: 96.1%); assay type: functional
MDA-MB-231 [31] = assay: Induction of apoptosis in human MDA-MB-231 cells assessed as necrotic cells at 2 uM after 48 hrs by Annexin-V FITC/propidium iodide staining based flow cytometry (reference value: 0.8%); assay type: functional
MDA-MB-231 [32] = assay: Induction of apoptosis in human MDA-MB-231 cells assessed as live cells at 8 uM after 48 hrs by Annexin-V FITC/propidium iodide staining based flow cytometry (reference value: 96.1%); assay type: functional
[33] = target: Signal transducer and activator of transcription 3 (Homo sapiens) (UniProt P40763); assay: Inhibition of STAT3 phosphorylation at Tyr-705 residue in human MDA-MB-231 cells assessed as decrease in Cyclin D1 protein expression at 1 to 5 uM after 48 hrs by Western blot method; assay type: cell-based
[34] = target: Signal transducer and activator of transcription 3 (Homo sapiens) (UniProt P40763); assay: Inhibition of STAT3 phosphorylation at Tyr-705 residue in human MDA-MB-231 cells assessed as decrease in Bcl2 mRNA expression at 1 to 5 uM after 48 hrs by RT-PCR method; assay type: cell-based
MDA-MB-231 [35] = assay: Induction of apoptosis in human MDA-MB-231 cells assessed as early apoptotic cells at 1 uM after 48 hrs by Annexin-V FITC/propidium iodide staining based flow cytometry (reference value: 2.6%); assay type: functional
MDA-MB-231 [36] = assay: Induction of apoptosis in human MDA-MB-231 cells assessed as necrotic cells at 10 uM after 48 hrs by Annexin-V FITC/propidium iodide staining based flow cytometry (reference value: 0.8%); assay type: functional
MDA-MB-231 [37] = assay: Induction of apoptosis in human MDA-MB-231 cells assessed as late apoptotic cells at 5 uM after 48 hrs by Annexin-V FITC/propidium iodide staining based flow cytometry (reference value: 0.4%); assay type: functional
MDA-MB-231 [38] = assay: Potency index, ratio of caffeic acid IC50 to compound IC50 for human MDA-MB-231 cells; assay type: functional
MDA-MB-231 [39] = assay: Induction of apoptosis in human MDA-MB-231 cells assessed as live cells at 5 uM after 48 hrs by Annexin-V FITC/propidium iodide staining based flow cytometry (reference value: 96.1%); assay type: functional
[40] = target: Signal transducer and activator of transcription 3 (Homo sapiens) (UniProt P40763); assay: Inhibition of STAT3 acetylation at Lys-685 residue in human MDA-MB-231 cells assessed as increase in CDKN2A mRNA at 1- 10 uM expression after 48 hrs by RT-PCR method; assay type: cell-based
HT-29 = assay: Potency index, ratio of resveratrol IC50 to compound IC50 for human HT-29 cells; assay type: functional
Mus musculus [41] = assay: Toxicity in Kunming mouse implanted with mouse 4T1 cells assessed as body weight loss at 1 mg/kg, ip administered once in 4 days for 14 days measured during compound dosing; assay type: organism-based; details: in vivo

Chain of Signal transducer and activator of transcription 3 (Homo sapiens) (P40763 whole entry): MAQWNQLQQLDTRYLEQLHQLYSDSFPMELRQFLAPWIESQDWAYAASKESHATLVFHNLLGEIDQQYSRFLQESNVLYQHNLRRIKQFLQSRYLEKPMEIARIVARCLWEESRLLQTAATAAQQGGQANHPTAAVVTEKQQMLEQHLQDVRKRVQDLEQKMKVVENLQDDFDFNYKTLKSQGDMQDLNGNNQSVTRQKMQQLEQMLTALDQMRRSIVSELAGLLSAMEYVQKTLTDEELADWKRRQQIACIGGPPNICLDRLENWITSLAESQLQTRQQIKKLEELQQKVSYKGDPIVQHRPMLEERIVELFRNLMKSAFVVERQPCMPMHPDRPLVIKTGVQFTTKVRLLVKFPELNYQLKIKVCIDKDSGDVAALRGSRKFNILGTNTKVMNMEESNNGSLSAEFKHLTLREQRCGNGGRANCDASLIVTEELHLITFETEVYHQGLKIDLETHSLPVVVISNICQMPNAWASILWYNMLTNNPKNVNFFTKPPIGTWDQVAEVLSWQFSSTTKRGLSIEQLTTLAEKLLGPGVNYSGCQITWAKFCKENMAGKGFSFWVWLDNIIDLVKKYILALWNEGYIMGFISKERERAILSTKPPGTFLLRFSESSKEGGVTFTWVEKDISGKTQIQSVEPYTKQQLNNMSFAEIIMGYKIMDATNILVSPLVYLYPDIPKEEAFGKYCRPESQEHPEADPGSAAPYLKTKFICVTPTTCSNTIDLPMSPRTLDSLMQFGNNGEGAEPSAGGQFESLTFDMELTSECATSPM

SMILES: COc1cc(/C=C/c2ccc(NC(=O)/C=C/c3ccccn3)cc2)cc(OC)c1
IC50 [1]: 3.4 µM
IC50 [2]: 6.12 µM

inhibition [5]: Active
inhibition [8]: Active
inhibition [14]: Dose-dependent effect
inhibition [19]: Active
inhibition [21]: Active
inhibition [25]: Dose-dependent effect
inhibition [33]: Active
inhibition [34]: Active
inhibition [40]: Active
SMILES: COc1cc(/C=C/c2ccc(NC(=O)/C=C/c3cc(OC)c(OC)c(OC)c3)cc2)cc(OC)c1
Activity (MDA-MB-231 [3]): Active
Activity (MDA-MB-231 [4]): 1.1%
TGI (4T1): Active
Activity (MDA-MB-231 [6]): 1.4%
Activity (MDA-MB-231 [7]): 87.5%
Activity (Mus musculus [9]): Non-Toxic
Activity (MDA-MB-231 [10]): 6.2%
Activity (MDA-MB-231 [11]): 18.5%
Activity [12]: Non-Toxic
Activity (MDA-MB-231 [13]): 37.1%
inhibition (MDA-MB-231 [15]): Dose-dependent effect
Activity (MDA-MB-231 [16]): 1.3%
inhibition (Mus musculus [17]): Active
Activity (MDA-MB-231 [18]): 9.8%
Activity (MDA-MB-231 [20]): 16.2%
Activity (MDA-MB-231 [22]): Dose-dependent effect
Activity (MDA-MB-231 [23]): 0.6%
IC50 [1]: 2.14 µM
Activity (MDA-MB-231 [24]): 10.6%
Activity (MDA-MB-231 [26]): 1.3%
Ratio IC50 (MDA-MB-231 [27]): >50
Activity (MDA-MB-231 [28]): Dose-dependent effect
Activity (MDA-MB-231 [29]): 74.6%
Activity (MDA-MB-231 [30]): 89.7%
Activity (MDA-MB-231 [31]): 1.3%
Activity (MDA-MB-231 [32]): 51.8%
IC50 [2]: 1.82 µM
Activity (MDA-MB-231 [35]): 7.7%
Activity (MDA-MB-231 [36]): 0.7%
Activity (MDA-MB-231 [37]): 4.7%
Ratio IC50 (MDA-MB-231 [38]): >50
Activity (MDA-MB-231 [39]): 78%

SMILES: COc1cc(/C=C/c2ccc(NC(=O)/C=C/c3ccccc3)cc2)cc(OC)c1
IC50 [1]: 2.01 µM
IC50 [2]: 1.75 µM

SMILES: COc1cc(/C=C/c2ccc(OC(=O)/C=C/c3ccc(F)cc3)cc2)cc(OC)c1
IC50 [1]: 6.21 µM
IC50 [2]: 7.77 µM

SMILES: COc1cc(/C=C/c2ccc(NC(=O)/C=C/c3ccc(OC)c(OC)c3)cc2)cc(OC)c1
Ratio IC50 (HT-29): >50
IC50 [1]: 7.74 µM
IC50 [2]: 0.96 µM

SMILES: COc1cc(/C=C/c2ccc(OC(=O)/C=C/c3ccc([N+](=O)[O-])cc3)cc2)cc(OC)c1
IC50 [1]: 18 µM
IC50 [2]: > 20 µM

SMILES: COc1cc(/C=C/c2ccc(OC(=O)/C=C/c3ccccc3)cc2)cc(OC)c1
IC50 [1]: 9.81 µM
IC50 [2]: 9.05 µM

SMILES: COc1cc(/C=C/c2ccc(NC(=O)/C=C/c3ccc(C(F)(F)F)cc3)cc2)cc(OC)c1
IC50 [1]: 3.52 µM
IC50 [2]: 1.78 µM

SMILES: COc1cccc2c1C(=O)c1c(O)c3c(c(O)c1C2=O)C[C@@](O)(C(=O)CO)C[C@@H]3O[C@H]1C[C@H](N)[C@H](O)[C@H](C)O1 [DOXORUBICIN]
Activity (Mus musculus [41]): Toxic

SMILES: COc1cc(/C=C/c2ccc(NC(=O)/C=C/c3ccc([N+](=O)[O-])cc3)cc2)cc(OC)c1
IC50 [1]: 11.7 µM
IC50 [2]: 10.7 µM

SMILES: COc1cc(/C=C/c2ccc(NC(=O)/C=C/c3ccc(Cl)cc3)cc2)cc(OC)c1
IC50 [1]: 14.1 µM
IC50 [2]: 10.3 µM

SMILES: COc1cc(/C=C/c2ccc(NC(=O)/C=C/c3ccc(Br)cc3)cc2)cc(OC)c1
IC50 [1]: 6.16 µM
IC50 [2]: 5.26 µM

— ChEMBL document CHEMBL3875178, “Discovery of oral-available resveratrol-caffeic acid based hybrids inhibiting acetylated and phosphorylated STAT3 protein” (Eur J Med Chem, 2016)
